Measured values reported in ChEMBL document CHEMBL5653615 (J Biol Chem, 2013).

Experiments:
[1] = molecular target: Calcium/calmodulin-dependent protein kinase type 1G (Homo sapiens) (UniProt Q96NX5); test: Inhibition of human CAMK1g at 18.6 nM by HotSpot assay relative to control
[2] = molecular target: Fibroblast growth factor receptor 3 (Homo sapiens) (UniProt P22607); test: Inhibition of human FGFR3 at 18.6 nM by HotSpot assay relative to control
[3] = molecular target: Casein kinase I isoform epsilon (Homo sapiens) (UniProt P49674); test: Inhibition of human CK1epsilon at 18.6 nM by HotSpot assay relative to control
Casein kinase I isoform epsilon (Homo sapiens), sequence (P49674 whole entry, looked up, canonical isoform): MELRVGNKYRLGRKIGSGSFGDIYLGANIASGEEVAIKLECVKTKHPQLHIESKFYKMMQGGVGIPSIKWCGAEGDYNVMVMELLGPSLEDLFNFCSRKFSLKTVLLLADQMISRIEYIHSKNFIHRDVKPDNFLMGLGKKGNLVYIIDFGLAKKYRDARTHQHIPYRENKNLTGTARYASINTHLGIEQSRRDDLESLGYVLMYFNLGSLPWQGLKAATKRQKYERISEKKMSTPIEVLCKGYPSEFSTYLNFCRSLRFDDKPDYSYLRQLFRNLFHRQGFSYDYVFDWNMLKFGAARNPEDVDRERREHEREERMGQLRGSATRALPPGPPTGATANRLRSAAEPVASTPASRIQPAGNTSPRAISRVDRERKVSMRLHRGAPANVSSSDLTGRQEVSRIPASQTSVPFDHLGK

[4] = molecular target: Serine/threonine-protein kinase pim-2 (Homo sapiens) (UniProt Q9P1W9); test: Inhibition of human PIM2 at 18.6 nM by HotSpot assay relative to control
Serine/threonine-protein kinase pim-2 (Homo sapiens), sequence (Q9P1W9 whole entry, looked up): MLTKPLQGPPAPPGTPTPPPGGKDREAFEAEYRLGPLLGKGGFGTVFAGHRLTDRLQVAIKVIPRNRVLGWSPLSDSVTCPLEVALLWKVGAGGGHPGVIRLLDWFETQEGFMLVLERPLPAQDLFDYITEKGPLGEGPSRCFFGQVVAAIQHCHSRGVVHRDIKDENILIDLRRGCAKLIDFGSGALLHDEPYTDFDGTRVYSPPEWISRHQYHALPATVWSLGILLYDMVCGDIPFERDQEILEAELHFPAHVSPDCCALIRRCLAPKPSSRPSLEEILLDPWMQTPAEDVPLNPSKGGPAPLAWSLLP

[5] = molecular target: Serine/threonine-protein kinase PAK 6 (Homo sapiens) (UniProt Q9NQU5); test: Inhibition of human PAK6 at 18.6 nM by HotSpot assay relative to control
Serine/threonine-protein kinase PAK 6 (Homo sapiens), sequence (Q9NQU5 whole entry, looked up): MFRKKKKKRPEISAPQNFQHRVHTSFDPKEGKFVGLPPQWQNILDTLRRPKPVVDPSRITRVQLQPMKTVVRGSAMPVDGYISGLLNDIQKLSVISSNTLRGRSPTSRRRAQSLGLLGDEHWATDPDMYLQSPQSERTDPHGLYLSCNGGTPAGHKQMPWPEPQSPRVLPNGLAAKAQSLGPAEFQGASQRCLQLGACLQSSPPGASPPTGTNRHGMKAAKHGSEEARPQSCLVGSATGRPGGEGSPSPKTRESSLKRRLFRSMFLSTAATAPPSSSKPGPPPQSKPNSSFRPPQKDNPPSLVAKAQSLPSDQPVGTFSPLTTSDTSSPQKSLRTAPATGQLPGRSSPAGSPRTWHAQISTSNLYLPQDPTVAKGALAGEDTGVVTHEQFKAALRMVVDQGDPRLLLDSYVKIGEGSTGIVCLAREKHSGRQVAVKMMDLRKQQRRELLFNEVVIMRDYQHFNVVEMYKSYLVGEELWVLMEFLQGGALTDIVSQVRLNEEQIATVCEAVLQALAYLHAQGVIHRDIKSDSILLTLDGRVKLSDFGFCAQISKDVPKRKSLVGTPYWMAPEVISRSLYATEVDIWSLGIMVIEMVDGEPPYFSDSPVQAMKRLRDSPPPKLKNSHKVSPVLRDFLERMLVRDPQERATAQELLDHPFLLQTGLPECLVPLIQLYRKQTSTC

[6] = molecular target: T1, Serine/threonine-protein kinase Nek11 (Homo sapiens) (UniProt Q8NG66); test: Inhibition of human NEK11 at 1.82 nM by HotSpot assay relative to control
T1 sequence (whole entry): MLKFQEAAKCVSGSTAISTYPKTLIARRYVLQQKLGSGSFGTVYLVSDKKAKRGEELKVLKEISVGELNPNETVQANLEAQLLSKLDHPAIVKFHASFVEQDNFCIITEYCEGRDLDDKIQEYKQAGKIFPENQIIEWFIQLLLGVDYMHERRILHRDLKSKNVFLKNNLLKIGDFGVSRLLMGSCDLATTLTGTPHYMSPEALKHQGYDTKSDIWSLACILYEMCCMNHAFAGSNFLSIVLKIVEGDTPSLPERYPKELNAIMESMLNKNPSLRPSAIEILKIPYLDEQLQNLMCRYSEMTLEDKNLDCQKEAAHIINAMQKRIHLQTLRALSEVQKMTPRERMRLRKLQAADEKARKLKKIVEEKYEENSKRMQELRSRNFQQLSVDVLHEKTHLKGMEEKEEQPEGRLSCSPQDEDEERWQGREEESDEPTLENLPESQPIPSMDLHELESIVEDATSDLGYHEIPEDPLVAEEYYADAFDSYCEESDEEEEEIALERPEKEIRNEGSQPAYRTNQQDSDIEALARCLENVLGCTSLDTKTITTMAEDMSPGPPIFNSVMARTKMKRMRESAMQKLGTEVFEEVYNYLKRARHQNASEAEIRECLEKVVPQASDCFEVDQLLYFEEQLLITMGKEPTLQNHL

[7] = molecular target: Cyclin-dependent kinase 1/cyclin B1 (Homo sapiens) (UniProt P06493+P14635); test: Inhibition of human CDK1/cyclin B at 1.82 nM by HotSpot assay relative to control; format: protein-complex assay
[8] = molecular target: T2, Tyrosine-protein kinase JAK3 (Homo sapiens) (UniProt P52333); test: Inhibition of human JAK3 at 1.82 nM by HotSpot assay relative to control
T2 sequence (whole entry): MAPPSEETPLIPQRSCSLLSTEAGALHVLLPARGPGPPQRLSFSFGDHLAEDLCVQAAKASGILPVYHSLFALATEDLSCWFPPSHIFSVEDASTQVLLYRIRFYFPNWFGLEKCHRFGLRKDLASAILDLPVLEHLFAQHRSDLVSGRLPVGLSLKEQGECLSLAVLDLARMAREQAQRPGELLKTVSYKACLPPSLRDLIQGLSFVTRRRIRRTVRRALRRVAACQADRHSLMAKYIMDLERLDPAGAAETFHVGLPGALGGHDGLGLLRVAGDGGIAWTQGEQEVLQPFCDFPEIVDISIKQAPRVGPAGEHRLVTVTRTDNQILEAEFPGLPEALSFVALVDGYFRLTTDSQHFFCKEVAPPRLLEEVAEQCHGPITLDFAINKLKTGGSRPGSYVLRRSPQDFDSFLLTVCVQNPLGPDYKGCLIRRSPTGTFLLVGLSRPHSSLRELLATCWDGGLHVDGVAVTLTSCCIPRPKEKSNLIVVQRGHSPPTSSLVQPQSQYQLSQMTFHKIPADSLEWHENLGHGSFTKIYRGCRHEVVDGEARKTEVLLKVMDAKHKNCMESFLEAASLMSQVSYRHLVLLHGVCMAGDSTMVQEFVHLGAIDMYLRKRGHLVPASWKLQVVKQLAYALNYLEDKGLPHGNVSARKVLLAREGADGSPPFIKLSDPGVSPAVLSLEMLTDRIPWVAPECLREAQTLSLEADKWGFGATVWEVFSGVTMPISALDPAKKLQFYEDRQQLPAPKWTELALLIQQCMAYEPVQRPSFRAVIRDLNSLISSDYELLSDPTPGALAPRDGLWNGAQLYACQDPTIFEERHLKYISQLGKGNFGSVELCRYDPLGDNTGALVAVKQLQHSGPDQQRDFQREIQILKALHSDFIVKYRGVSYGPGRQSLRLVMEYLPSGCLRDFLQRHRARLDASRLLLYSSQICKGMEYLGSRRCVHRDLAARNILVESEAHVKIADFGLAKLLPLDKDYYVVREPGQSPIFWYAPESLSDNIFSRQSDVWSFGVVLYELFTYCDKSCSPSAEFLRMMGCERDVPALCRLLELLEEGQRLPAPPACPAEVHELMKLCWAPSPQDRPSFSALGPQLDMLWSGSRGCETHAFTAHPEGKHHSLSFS

[9] = molecular target: Protein kinase C beta type (Homo sapiens) (UniProt P05771); test: Inhibition of human PKCb1 at 1.82 nM by HotSpot assay relative to control
Protein kinase C beta type (Homo sapiens), sequence (P05771 2-671 limits assumed): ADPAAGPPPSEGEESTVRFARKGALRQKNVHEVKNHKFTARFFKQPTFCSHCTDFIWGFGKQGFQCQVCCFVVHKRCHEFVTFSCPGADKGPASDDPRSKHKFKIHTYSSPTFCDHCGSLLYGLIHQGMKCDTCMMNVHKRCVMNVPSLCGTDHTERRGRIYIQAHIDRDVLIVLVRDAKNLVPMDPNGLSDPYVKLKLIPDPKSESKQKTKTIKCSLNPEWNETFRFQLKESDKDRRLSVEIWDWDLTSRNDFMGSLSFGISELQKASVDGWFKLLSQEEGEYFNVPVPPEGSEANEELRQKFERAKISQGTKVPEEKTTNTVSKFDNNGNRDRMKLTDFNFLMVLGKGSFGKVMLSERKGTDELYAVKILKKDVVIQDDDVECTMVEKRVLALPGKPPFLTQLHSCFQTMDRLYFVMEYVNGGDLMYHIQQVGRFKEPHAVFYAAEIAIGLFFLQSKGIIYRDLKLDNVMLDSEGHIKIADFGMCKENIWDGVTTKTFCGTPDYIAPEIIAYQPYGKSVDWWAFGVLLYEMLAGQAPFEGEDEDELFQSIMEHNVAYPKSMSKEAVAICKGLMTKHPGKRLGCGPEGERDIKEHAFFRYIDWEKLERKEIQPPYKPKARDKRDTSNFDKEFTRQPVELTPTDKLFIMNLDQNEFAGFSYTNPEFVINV

[10] = molecular target: MAP/microtubule affinity-regulating kinase 3 (Homo sapiens) (UniProt P27448); test: Inhibition of human MARK3 at 1.82 nM by HotSpot assay relative to control
MAP/microtubule affinity-regulating kinase 3 (Homo sapiens), sequence (P27448 whole entry, looked up): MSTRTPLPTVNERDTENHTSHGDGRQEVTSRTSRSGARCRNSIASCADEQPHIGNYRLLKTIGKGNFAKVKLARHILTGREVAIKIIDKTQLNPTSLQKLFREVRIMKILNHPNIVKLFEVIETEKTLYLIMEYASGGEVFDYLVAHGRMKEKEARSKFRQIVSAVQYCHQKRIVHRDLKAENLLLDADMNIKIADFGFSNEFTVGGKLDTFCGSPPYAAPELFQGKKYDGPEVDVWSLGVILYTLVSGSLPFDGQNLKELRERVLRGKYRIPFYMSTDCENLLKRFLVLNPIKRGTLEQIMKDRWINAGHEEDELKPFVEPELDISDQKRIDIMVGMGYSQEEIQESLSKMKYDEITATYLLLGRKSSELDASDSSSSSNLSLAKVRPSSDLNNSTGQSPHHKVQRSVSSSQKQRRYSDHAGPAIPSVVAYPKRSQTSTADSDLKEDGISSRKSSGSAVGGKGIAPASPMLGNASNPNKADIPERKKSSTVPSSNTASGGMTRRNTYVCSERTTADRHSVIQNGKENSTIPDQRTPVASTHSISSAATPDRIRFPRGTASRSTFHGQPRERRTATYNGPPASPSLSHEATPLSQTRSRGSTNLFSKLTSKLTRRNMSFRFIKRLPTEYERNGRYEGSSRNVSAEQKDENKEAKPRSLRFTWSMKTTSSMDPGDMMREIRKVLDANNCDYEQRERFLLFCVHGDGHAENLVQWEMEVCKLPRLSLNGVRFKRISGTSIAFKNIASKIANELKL

[11] = molecular target: Tyrosine-protein kinase JAK1 (Homo sapiens) (UniProt P23458); test: Inhibition of human JAK1 at 1.82 nM by HotSpot assay relative to control
Tyrosine-protein kinase JAK1 (Homo sapiens), sequence (P23458 whole entry): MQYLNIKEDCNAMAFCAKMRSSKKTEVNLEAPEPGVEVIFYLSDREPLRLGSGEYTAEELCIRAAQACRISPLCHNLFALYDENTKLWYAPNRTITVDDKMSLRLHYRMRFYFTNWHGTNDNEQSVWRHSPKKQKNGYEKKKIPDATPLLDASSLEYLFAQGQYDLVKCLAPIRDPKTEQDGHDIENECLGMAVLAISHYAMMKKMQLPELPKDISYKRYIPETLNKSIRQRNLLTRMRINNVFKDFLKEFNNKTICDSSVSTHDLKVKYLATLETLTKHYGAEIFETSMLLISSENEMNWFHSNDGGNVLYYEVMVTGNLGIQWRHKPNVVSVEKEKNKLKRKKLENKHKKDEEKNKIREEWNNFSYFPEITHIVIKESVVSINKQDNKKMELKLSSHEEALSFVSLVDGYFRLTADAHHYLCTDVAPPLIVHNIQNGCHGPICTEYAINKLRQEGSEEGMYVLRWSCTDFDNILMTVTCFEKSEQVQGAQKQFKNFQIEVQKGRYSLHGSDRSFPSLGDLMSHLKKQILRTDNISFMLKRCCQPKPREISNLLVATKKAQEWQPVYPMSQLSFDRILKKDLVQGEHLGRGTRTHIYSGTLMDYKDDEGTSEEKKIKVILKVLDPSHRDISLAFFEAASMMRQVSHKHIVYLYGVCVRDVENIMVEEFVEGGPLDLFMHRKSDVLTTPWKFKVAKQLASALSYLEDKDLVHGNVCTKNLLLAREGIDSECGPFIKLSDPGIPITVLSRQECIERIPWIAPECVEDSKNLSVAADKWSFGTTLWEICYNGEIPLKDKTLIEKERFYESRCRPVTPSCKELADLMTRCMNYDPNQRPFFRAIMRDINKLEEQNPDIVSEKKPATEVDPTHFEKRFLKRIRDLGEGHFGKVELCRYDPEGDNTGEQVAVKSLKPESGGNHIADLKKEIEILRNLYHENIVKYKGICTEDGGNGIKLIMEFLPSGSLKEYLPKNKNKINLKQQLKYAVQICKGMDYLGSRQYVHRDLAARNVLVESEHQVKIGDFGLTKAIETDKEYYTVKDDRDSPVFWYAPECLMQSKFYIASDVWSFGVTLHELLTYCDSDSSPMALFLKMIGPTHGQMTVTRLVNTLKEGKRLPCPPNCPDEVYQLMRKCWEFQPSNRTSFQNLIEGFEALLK

Fibroblast growth factor receptor 3 (Homo sapiens), sequence (P22607 23-806 limits assumed): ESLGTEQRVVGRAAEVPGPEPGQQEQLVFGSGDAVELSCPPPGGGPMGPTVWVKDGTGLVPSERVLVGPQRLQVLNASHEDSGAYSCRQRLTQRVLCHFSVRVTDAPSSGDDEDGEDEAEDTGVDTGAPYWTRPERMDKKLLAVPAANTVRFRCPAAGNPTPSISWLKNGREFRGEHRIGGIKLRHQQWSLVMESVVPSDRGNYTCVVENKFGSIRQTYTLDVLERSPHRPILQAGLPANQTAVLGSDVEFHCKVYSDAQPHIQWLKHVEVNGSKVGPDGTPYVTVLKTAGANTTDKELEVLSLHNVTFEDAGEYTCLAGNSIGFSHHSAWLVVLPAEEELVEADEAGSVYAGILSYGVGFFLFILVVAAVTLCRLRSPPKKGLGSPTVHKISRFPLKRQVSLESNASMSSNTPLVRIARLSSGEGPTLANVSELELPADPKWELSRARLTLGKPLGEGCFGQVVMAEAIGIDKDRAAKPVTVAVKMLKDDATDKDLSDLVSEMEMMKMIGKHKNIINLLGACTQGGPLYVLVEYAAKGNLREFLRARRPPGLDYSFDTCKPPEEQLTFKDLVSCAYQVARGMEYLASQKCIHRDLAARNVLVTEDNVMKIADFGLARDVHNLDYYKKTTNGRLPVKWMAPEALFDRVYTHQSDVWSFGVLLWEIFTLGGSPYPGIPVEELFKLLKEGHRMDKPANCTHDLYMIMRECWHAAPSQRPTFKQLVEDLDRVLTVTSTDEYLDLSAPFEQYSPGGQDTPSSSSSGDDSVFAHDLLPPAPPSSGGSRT

SMILES: C[C@]1(O)C[C@@H](c2nc(-c3ccc4ccc(-c5ccccc5)nc4c3)c3c(N)nccn32)C1
- inhibition [1]: 6.69%
- inhibition [2]: 8.2%
- inhibition [3]: 0.64%
- inhibition [4]: -9.03%
- inhibition [5]: -8.39%

SMILES: C[C@@]1(C(=O)Nc2ccc(F)nc2)CCCN1c1nc(Nc2cc(C3CC3)n[nH]2)c2cccn2n1
- inhibition [6]: -5.31%
- inhibition [7]: 0.77%
- inhibition [8]: -1.99%
- inhibition [9]: -8.94%
- inhibition [10]: 1.57%
- inhibition [11]: -5.65%
